These results are taken from patent US8680119B2, “Ethers, secondary amines and derivatives thereof as modulators of the 5-HT2A serotonin receptor useful for the treatment of disorders related thereto” (Arena Pharmaceuticals, Inc., priority 2006, dated 2014).

For one assay, the target named is human 5-HT2A receptor (Homo sapiens (Human), UniProt P28223). Description: [125I]DOI radioligand binding assay. The conditions noted are these: 0.5 nM [125I]DOI, COS7 membranes with recombinant human 5-HT2A receptor. As for the experimental part: For the IP accumulation assay (Example 3), HEK293 cells were transfected while for the DOI binding assay (Example 4) COS7 cells were transfected. Several protocols well known in the art can be used to transfect cells. The following protocol is representative of the transfection procedures used herein for COS7 or 293 cells.
On day one, COS-7 cells were plated onto 24 well plates, usually 1×10^5 cells/well or 2×10^5 cells/well, respectively. On day two, the cells were transfected by first mixing 0.25 μg cDNA in 50 μL serum-free DMEM/well and then 2 μL lipofectamine in 50 μL serum-free DMEM/well. The solutions (“transfection media”) were gently mixed and incubated for 15-30 minutes at room temperature. The cells were washed with 0.5 mL PBS and then 400 μL of serum free media was mixed with the transfection media and added to the cells. The cells were then incubated for 3-4 hours at 37° C./5% CO2. Then the transfection media was removed and replaced with 1 mL/well of regular growth media.
Compounds of the invention were tested for their ability to bind to a 5-HT2A receptor clone membrane preparation using a radioligand binding assay. Briefly, COS cells were transiently transfected with a pCMV expression vector containing a human 5-HT2A receptor (for the sequence of the receptor see U.S. Pat. No. 6,541,209, SEQ ID NO:24) as described in Example 2.
COS7 cells transfected with recombinant human 5-HT2A receptors were cultured for 48 hr post transfection, collected, washed with ice-cold phosphate buffered saline, pH7.4 (PBS), and then centrifuged at 48,000×g for […] at 4° C. The cell pellet was then resuspended in wash buffer containing 20 mM HEPES pH 7.4 and 0.1 mM EDTA, homogenized on ice using a Brinkman polytron, and recentrifuged at 48,000×g for 20 min. at 4° C. The resultant pellet was then resuspended in 20 mM HEPES, pH 7.4, homogenized on ice, and centrifuged (48,000×g for 20 min at 4° C.). Crude membrane pellets were stored at −80° C. until used for radioligand binding assays.
Radioligand binding assays for human 5-HT2A receptor was conducted using the 5-HT2 agonist [^125I]DOI as radioligand. To define nonspecific binding, 10 μM DOI was used for all assays. For competitive binding studies, 0.5 nM [^125I]DOI was used and compounds were assayed over a range of 0.01 nM to 10 μM. Assays were conducted in a total volume of 200 μl in 96-well Perkin Elmer GF/C filter plates in assay buffer (50 mM Tris-HCl, pH 7.4, 0.5 mM EDTA, 5 mM MgCl2, and 10 μM pargyline). […] Plates were then dried at room temperature and counted in a Wallac microBeta scintillation counter.
For orientation: IC50 means the concentration that gives 50% inhibition. Consider `COCCNCCOc1ccc(NC(=O)c2cccc(C(F)(F)F)c2)cc1-c1c(Cl)cnn1C` [Compound 15, N-{3-(4-Chloro-2-methyl-2H-pyrazol-3-yl)-4-[2-(2-methoxy-ethylamino)-ethoxy]-phenyl}-3-trifluoromethyl-benzamide], for which the IC50 was found to be 0.082 nM.

For `COCCNC(=O)COc1ccc(NC(=O)c2cccc(C(F)(F)F)c2)cc1-c1c(Cl)cnn1C` [Compound 50, N-{3-(4-Chloro-2-methyl-2H-pyrazol-3-yl)-4-[(2-methoxy-ethylcarbamoyl)-methoxy]-phenyl}-3-trifluoromethyl-benzamide], the IC50 turned out to be 52 nM.

With `COCCOc1ccc(NC(=O)c2cccc(C(F)(F)F)c2)cc1-c1ccnn1C` [Compound 52, N-[4-(2-Methoxy-ethoxy)-3-(2-methyl-2H-pyrazol-3-yl)-phenyl]-3-trifluoromethyl-benzamide], the IC50 was determined as 4.4 nM.

As to `COc1cccc(C(=O)Nc2ccc(OCCO)c(-c3c(Cl)cnn3C)c2)c1` [Compound 68, N-[3-(4-Chloro-2-methyl-2H-pyrazol-3-yl)-4-(2-hydroxy-ethoxy)-phenyl]-3-methoxy-benzamide], the IC50 came out at 0.51 nM.

The next assay relates to diabetic rats.
Assay: not given
The conditions noted are these: range stated for all three drugs; cited from earlier work.
Turning to `O=CN1CCC(C(=O)NCCN2CCC(=C3c4ccccc4C=Cc4ccccc43)CC2)CC1` [AT-1015], the “correction of a 19.8% sciatic motor conduction deficit” value is listed as 82.6-99.7%.

`Cc1nc2sccn2c(=O)c1CCN1CCC(=C(c2ccc(F)cc2)c2ccc(F)cc2)CC1` [ritanserin]: the “correction of a 19.8% sciatic motor conduction deficit” value is reported as 82.6-99.7%.

As to `COc1cccc(CCc2ccccc2OCC(CN(C)C)OC(=O)CCC(=O)O)c1` (stereo not shown) [sarpogrelate], the “correction of a 19.8% sciatic motor conduction deficit” value is listed as 82.6-99.7%.
